Assay results taken from US5455248A, “Substituted 6,11-ethano-6,11-dihydrobenzo[b] quinolizinium salts, and compositions and method of use thereof” (Sterling Winthrop Inc., priority 1993, dated 1995).

Assays:
[1] = target: PCP recognition sites (PCP receptor), rat whole brain membranes; experiment: [^3 H]TCP Radioreceptor Assay (internal screen); assay type: binding, Male Sprague-Dawley rats; settings: for Ki / [^3 H]TCP (internal screen) Percent (%) inhibition @10 μM: [^3 H]TCP approx. 1 nM, room temperature 25 min; for Ki: mean of at least two separate determinations
Description: [^3 H]TCP binding to PCP recognition sites was performed as described by Vignon et al. Brain Research 1983, 280, 194-197. Male Sprague-Dawley rats were sacrificed by decapitation, and whole brains were homogenized in 10 volumes (wt/vol) of cold Tris-HCl buffer (50 mM, pH 7.7) using a Brinkmann Polytron (setting 6, 30 sec). The homogenate was centrifuged at 40,000×g for 10 min at 4° C. The supernatant was decanted, and the homogenization and centrifugation steps were repeated twice as described above. Following this, the pellet was resuspended in Tris-HCl (5 mM, pH 7.7) at a tissue concentration of 0.5-0.75 g/ml, and one ml aliquots were frozen at -70° C. until use. The binding characteristics for PCP recognition sites were not altered by the freezing of membrane suspensions.
On the day of the assay, membrane aliquots were thawed, resuspended in fresh 5 mM Tris-HCl buffer at a tissue concentration of 1 mg/ml, and stored on ice until use. Each assay tube contained 100 μl of [^3 H]TCP at a final concentration of approximately 1 nM, 100 μl of various concentrations of the compounds of interest, 500 μl of the tissue suspension and 300 μl of buffer to a final assay volume of 1 ml and a final protein concentration of 0.5 mg/tube. Non-specific binding was defined by addition of […]. All tubes were incubated at room temperature for 25 min before termination of the reaction by rapid filtration over Whatman GF/B glass fiber filters that had been presoaked in a solution of 0.5% polyethylenimine for at least 1 hr prior to use. Filters were washed with three 4 ml volumes of cold Tris buffer. Following addition of scintillation cocktail, the amount of bound radioactivity was determined by liquid scintillation spectrometry using a Beckman LS 5000TA liquid scintillation counter with an efficiency for tritium of approximately 55%. Inhibition constants (Ki values) were calculated using the EBDA/LIGAND program (McPherson, J. Pharmacol. Meth. 1985, 14, 213-228), purchased from Elsevier/Biosoft, Inc. Results are reported as Ki values which are expressed as the mean of at least two separate determinations, or as a percent (%) inhibition of binding at 10 μM.

[2] = test system: NMDA-induced neurotoxicity in cultured cortical neurons; experiment: Antagonism of NMDA-induced Neurotoxicity in Cultured Neurons; assay type: cell-based, Swiss-Webster mice; settings: 500 μM NMDA for 30 minutes, LDH activity after 24 hours
Description: Pregnant, Swiss-Webster mice were obtained from Taconic Farms (Germantown, N.Y.) and sacrificed 16 days post conception. Fetuses were removed and placed in a sterile dish containing Hank's balanced salt solution (HBSS), pH 7.4. Brain cortices were dissected, meninges were removed, the tissue was minced and placed into a solution of HBSS containing 0.25% (w/v) trypsin at 37° C. for 15 minutes. Tissue was then triturated with a sterile pasteur pipet, diluted with minimal essential media (Gibco 330-1430), pH 7.4, supplemented with 10% horse serum, 10% fetal calf serum, 2 mM 1-glutamine, 21 mM d-glucose, 2.2 g/L sodium bicarbonate, 1000 U/ml penicillin, and 1,000 μg/ml streptomycin. Cells were plated onto Falcon primaria 96 well plates at a final density of 50,000 cells/well and incubated at 37° C. in the presence of 5% (v/v) carbon dioxide. After 5 days, plating media was replaced with maintenance media containing minimal essential media (Gibco 330-1430), pH 7.4, supplemented with 10% horse serum, […], 21 mM d-glucose, 2.2 g/1 sodium bicarbonate,1,000 U/ml penicillin, 1,000 μg/ml streptomycin, and 10 μM cytosine arabinoside. On days 7 and 10, media was replaced with maintenance media as above lacking the cytosine arabinoside. Experiments were conducted on day 13.
Day 13 cultured cortical neurons were washed twice with minimal essential media, pH 7.4 and then exposed for 30 minutes to 500 μM N-methyl-D-aspartic acid (NMDA) with or without varying concentrations of test agents. Dizocilpine (MK-801) at a final concentration of 10 μM MK-801 was routinely included as a positive control. MK-801 and test agents were prepared in minimal essential media supplemented with 21 mM d-glucose and 2.2 g/L sodium bicarbonate (MEM). After 30 minutes, media was replaced with MEM alone. Exposure of neurons to test agents was limited to the NMDA treatment period. Twenty-four hours after removal of NMDA, an aliquot of media from each well was removed for assessment of cell injury by determining lactate dehydrogenase (LDH) activity by the method of Wroblewski and LaDue Proc. Soc. […]

[3] = test system: PCP recognition sites (PCP receptor), whole rat forebrain membranes; experiment: [^3 H]TCP Radioreceptor Assay (external screen); assay type: binding; settings: 25° C. for 60 minutes
Description: Representative compounds of the invention were also tested in an external [^3 H]TCP radioreceptor assay using the following protocol:
A procedure similar to that described above for the [^3 H]TCP radioreceptor assay (internal screen) was utilized except that the whole rat forebrain membranes were incubated at 25° C. for 60 minutes rather than at room temperature for 25 minutes, before termination of the reaction. The results are reported as a percent (%) inhibition of binding at 10 μM.

Compound | Ki [1] [µM] | further results
12-isopropylidene-13,13-dimethyl-6,11-ethano-6,11-dihydrobenzo[b]quinolizinium perchlorate (Formula I: R^1 =H; R^2 =R^3 =CH3 ; R^4 and R^5 together =isopropylidene; X^- =ClO4^-) and 12,12-dimethyl-13-isopropylidene-6,11-ethano-6,11-dihydrobenzo[b]quinolizinium perchlorate [Example 16] | 0.265 | 
C=C(C)C1(C)CC2c3ccccc3C1c1cccc[n+]12 (single isomer, unassigned) [Example 2, 6,11-ethano-12-isopropenyl-12-methyl-6,11-dihydrobenzo[b]quinolizinium bromide] | 0.208 | IC50 ([2]; Mus musculus, Cortical neurone): 7300 nM
C=C(C)C1(COC)CC2c3ccccc3C1c1cccc[n+]12.[O-][Cl+3]([O-])([O-])[O-] (single isomer, unassigned) [Example 4, 6,11-ethano-12-isopropenyl-12-methoxymethyl-6,11-dihydrobenzo[b]quinolizinium perchlorate] | 0.313 | 
CC(C)(C)C1C2c3ccccc3C(C1C(C)(C)C)[n+]1ccccc12.F[P-](F)(F)(F)(F)F (single isomer, unassigned) [Example 6, 6,11-ethano-12-tert-butyl13-tert-butyl-6,11-dihydrobenzo[b]quinolizinium hexafluorophosphate] |  | [^3 H]TCP (internal screen) Percent (%) inhibition @10 μM [1]: 44%
CC(C)(C)C1C2c3ccccc3C(C1C(C)(C)C)[n+]1ccccc12 (single isomer, unassigned) [Example 7, 6,11-ethano-12-tert-butyl-13-tert-butyl-6,11-dihydrobenzo[b]quinolizinium hexafluorophosphate] | 5.09 | 
C=CC1CC2c3ccccc3C1c1cccc[n+]12 (single isomer, unassigned) [Example 13(a), 6,11-ethano-12-ethylene-6,11-dihydrobenzo[b]quinolizinium bromide] |  | [^3 H]TCP (internal screen) Percent (%) inhibition @10 μM [1]: 49%
c1ccc2c(c1)C1CC3(CCC3)C2c2cccc[n+]21 (stereo not shown) [10(b), 6,11-ethano-12,12-(1'-spirocyclobutane)-6,11-dihydrobenzo[b]-quinoliziniumchloride] | 3.11 | 
OCC1(CO)CC2c3ccccc3C1c1cccc[n+]12 (stereo not shown) [11(b), 6,11-ethano-12,12-dihydroxymethyl-6,11-dihydrobenzo[b]quinolizinium chloride] | 1.95 | 
c1ccc2c(c1)C1CC3(C4CC5CC(C4)CC3C5)C2c2cccc[n+]21 (stereo not shown) [15(b), 6,11-ethano-12,12-(2'-spiro-adamantane)-6,11-dihydrobenzo[b]quinolizinium chloride] | 5.29 | 
CCOCC1(COCC)CC2c3ccccc3C1c1cccc[n+]12 (stereo not shown) [17(b), 12,12-diethoxymethyl-6,11-ethano-6,11-dihydrobenzo[b]quinolizinium chloride] | 0.353 | 
C#CC1(C#C)CC2c3ccccc3C1c1cccc[n+]12 (stereo not shown) [18(b), 12,12-diethynyl-6,11-ethano-6,11-dihydrobenzo[b]quinolizinium hexafluorophosphate] | 0.883 | 
CC1(C)C2c3ccccc3C([n+]3ccccc32)C1(C)C.[O-][Cl+3]([O-])([O-])[O-] (stereo not shown) [Example 1, 6,11-ethano-12, 12, 13,13-tetramethyl-6,11-dihydrobenzo[b]quinolizinium perchlorate] | 0.0212 | 
C=C(C)C1(C)CC2c3ccccc3C1c1cccc[n+]12 (stereo not shown) [Example 3, 6,11-ethano-12-isopropenyl-12-methyl-6,11-dihydrobenzo[b]quinolizinium bromide] | 0.191 | IC50 [2]: 5880 nM
C=C(C)C1(C)CC2c3ccccc3C1c1cccc[n+]12 (stereo not shown) [Example 5, 6,11-ethano-12-isopropenyl-12-methyl-6,11dihydrobenzo[b]quinolizinium chloride] | 0.0652 | IC50 [2]: 2810 nM
[O-][Cl+3]([O-])([O-])[O-].c1ccc2c(c1)C1CC(C3CC3)(C3CC3)C2c2cccc[n+]21 (stereo not shown) [Example 8, 6,11-ethano-12,12-dicyclopropyl-6,11-dihydrobenzo[b]-quinolizinium perchlorate] | 0.0881 | 
c1ccc2c(c1)C1CC(C3CC3)(C3CC3)C2c2cccc[n+]21 (stereo not shown) [Example 9, 6.11-ethano-12,12-dicyclopropyl-6,11-dihydrobenzo[b]quinolizinium chloride] | 0.103 | 
C=C(C)C1(C)CC2(C)c3ccccc3C1c1cccc[n+]12.[O-][Cl+3]([O-])([O-])[O-] (stereo not shown) [Example 12, 6,11-ethano-6-methyl-12-isopropenyl-12-methyl-6,11-dihydrobenzo[b]quinolizinium perchlorate] | 0.069 | 
CC(C)=CC1C2c3ccccc3C([n+]3ccccc32)C1(C)C (stereo not shown) [Example 14, 6,11-ethano-12-(2,2-dimethyl)ethylene-13,13-dimethyl-6,11-dihydrobenzo[b]quinolizinium hexafluorophosphate] | 3.54 | 
CC(C)C1(C(C)C)CC2c3ccccc3C1c1cccc[n+]12 (stereo not shown) [Example 19, 12,12-diisopropyl-6,11-dihydrobenzo[b]quinolizium hexafluorophosphate] | 6.01 | 
C=C(C)C1(C)CC2c3ccccc3C1c1cccc[n+]12.[O-][Cl+3]([O-])([O-])[O-] (stereo not shown) [Example 20, 6,11-ethano-12-isopropenyl-12-methyl-6,11-dihydrobenzo[b]quinolizinium perchlorate] | 0.0457 | [^3 H]TCP (external screen) Percent inhibition (%) @10 μM [3]: 94%; binding to the PCP receptor (in words) [1]: found to bind to the PCP receptor
